Assay results taken from patent US20220047507A1, “MELFLUFEN DOSAGE REGIMENS FOR CANCER” (ONCOPEPTIDES AB, priority 2015, published 2022).
Like-named read-outs stand apart in the source and are kept apart here.

Experiments:
[1] = system: relapsed-refractory multiple myeloma (RRMM) patients; test: Safety in patients with RRMM, Example 2b, time point (bii); assay type: in vivo, human
Description: Example 2: An open label single arm extension on the dose of 40 mg over 30 minutes of Example 1. Intravenous melflufen was administered over 30 minutes on Day 1 of a 21-day cycle or 28-day cycle (in combination with 40 mg dexamethasone (oral or intravenous) treatment on Days 1, 8 and 15) for at least 2 cycles, and up to the stated number of cycles. The cycle length was extended during the Example 2 Clinical Trial from 21 to 28 days per a protocol amendment to allow for a better recovery of neutrophils and thrombocytes before a new cycle is initiated.
Dose reductions from 40 mg to 25 mg melflufen for patients in the trial was possible in connection with adverse effects of thrombocytopenia/neutropenia.
Example 2a results are from a data cut-off of time point (a). Example 2b results are from a data cut-off of time point (bi) for the efficacy data, which was approximately 12 months after time point (a); and from a data cut-off of time point (bii) for the safety data, which was approximately 10 months after time point (a).
By the data cut-off point for safety data (time point (bii)) 40 patients has been dosed with 183 doses of melflufen hydrochloride 40 mg over 30 minutes. A total of 11 patients had dose reductions from 40 mg to 25 mg melflufen during the study. All dose reductions were in connection with AEs of thrombocytopenia/neutropenia. Seven (7) patients (64%) had dose reductions in connection to thrombocytopenia, 3 patients to neutropenia (27%) and 1 patient (9%) to both thrombocytopenia and neutropenia.

[2] = human, in vivo, iv
[3] = clinical; settings: human, in vivo, iv; for AUC(0-t): AUC0-4; for AUC(0-inf): AUCinf
[4] = system: different human tumors, including MM; settings: at seemingly comparable toxicity; cited from earlier work
[5] = 40 mg melflufen (+dex) treated patients
[6] = 40 mg treated patients, Example 2b
[7] = 40 mg, Example 2b N = 40, listed as melflufen hydrochloride
[8] = Cycle length 21 days, 30 patients, 87 cycles
[9] = Cycle length 28 days, 10 patients, 24 cycles
[10] = of the 11 patients with dose reductions
[11] = of the 40 safety evaluable patients

## CCOC(=O)[C@H](Cc1ccc(F)cc1)NC(=O)[C@@H](N)Cc1ccc(N(CCCl)CCCl)cc1.Cl [melflufen, L-Melphalanyl-4-fluoro-L-phenylalanine ethyl ester]
[1]; [5]
  Grade 3 and 4 febrile neutropenia regardless of relationship: 5%
  Grade 3 and 4 lower respiratory tract infection regardless of relationship: 2%
  Grade 3 and 4 lower respiratory tract infection regardless of relationship, n patients: 1
  Grade 3 and 4 neutropenia regardless of relationship, n patients: 23
  Grade 3 and 4 parainfluenza virus infection regardless of relationship: 2%
  Grade 3 and 4 parainfluenza virus infection regardless of relationship, n patients: 1
  Grade 3 and 4 pneumonia regardless of relationship: 10%
[1]; [6]
  Grade 3/4 hyperglycemia (reported as treatment-related to dexamethasone): 10%
  Grade 3/4 hyperglycemia (reported as treatment-related to dexamethasone), n patients: 4
[1]; 40 mg, Example 2b
  Serious TEAE related to melflufen: Diarrhoea: (5) %
  Serious TEAE related to melflufen: Diarrhoea, number of patients: 2
  Serious TEAE related to melflufen: Escherichia coli sepsis: (2.5) %
  Serious TEAE related to melflufen: Escherichia coli sepsis, number of patients: 1
  Serious TEAE related to melflufen: Febrile Neutropenia: (5) %
  Serious TEAE related to melflufen: Febrile Neutropenia, number of patients: 2
  Serious TEAE related to melflufen: Neutropenia: (5) %
  Serious TEAE related to melflufen: Neutropenia, number of patients: 2
  Serious TEAE related to melflufen: Pneumonia: (10) %
  Serious TEAE related to melflufen: Pneumonia, number of patients: 4
  Serious TEAE related to melflufen: Pyrexia: (5) %
  Serious TEAE related to melflufen: Pyrexia, number of patients: 2
  anemia, all grades, regardless of relationship: 65%
  asthenia, all grades, regardless of relationship: 35%
  diarrhoea, all grades, regardless of relationship: 25%
  nausea, all grades, regardless of relationship: 28%
  neutropenia, all grades, regardless of relationship: 65%
  pyrexia, all grades, regardless of relationship: 43%
  thrombocytopenia, all grades, regardless of relationship: 73%
[1]; 40 mg, Example 2b N = 40
  Anemia, treatment related ≥grade 3: 43%
  Any treatment-related grade 3 and/or grade 4, grade 4: (50) %
  Any treatment-related grade 3 and/or grade 4, ≥grade 3: 85%
  Asthenia, treatment related ≥grade 3: (5) %
  Blood and lymphatic system disorders, treatment related grade 4: (50) %
  Blood and lymphatic system disorders, treatment related ≥grade 3: (82.5) %
  Fatigue, treatment related ≥grade 3: (5) %
  Febrile neutropenia, treatment related ≥grade 3: (5) %
  General disorders and administration site conditions, treatment related ≥grade 3: (17.5) %
  Hyperglycemia, treatment related grade 4: (3) %
  Hyperglycemia, treatment related ≥grade 3: (8) %
  Infections and infestations, treatment related ≥grade 3: (5) %
  Investigations, treatment related ≥grade 3: (12.5) %
  Metabolism and nutrition disorders, treatment related grade 4: (3) %
  Metabolism and nutrition disorders, treatment related ≥grade 3: (8) %
  Neutropenia, treatment related grade 4: (30) %
  Neutropenia, treatment related ≥grade 3: 58%
  Neutrophil count decreased, treatment related ≥grade 3: (10) %
  Pneumonia, treatment related ≥grade 3: (5) %
  Pyrexia, treatment related ≥grade 3: (5) %
  Thrombocytopenia, treatment related grade 4: (40) %
  Thrombocytopenia, treatment related ≥grade 3: 63%
  White blood cell count decreased, treatment related ≥grade 3: (5) %
[1]; [7]
  Anemia, treatment related ≥grade 3: (43) %
  Any treatment-related grade 3 and/or grade 4, ≥grade 3: (85) %
  Neutropenia, treatment related ≥grade 3: (57.5) %
  Thrombocytopenia, treatment related ≥grade 3: (62.5) %
[1]; 40 mg, Example 2b, 40 patients
  patients with Serious TEAEs: 40%
  patients with treatment-related Serious TEAEs: 30%
[1]; 14 patients
  median number of cycles before discontinuation due to bone marrow suppression: 3.5 cycles
[1]; [8]
  Cycles with a dose interruption: (37) % of total
  Patients with a dose interruption: (57) % of total
  Patients with a dose reduction: (37) % of total
[1]; [9]
  Cycles with a dose interruption: (13) % of total
  Patients with a dose interruption: (30) % of total
  Patients with a dose reduction: (20) % of total
[1]; Example 2b
  incidence of Grade 3-4 pneumonia: 14%
  infectious adverse effects with fatal outcomes possibly related to the study treatments: 8%
  infectious adverse effects with fatal outcomes possibly related to the study treatments, n patients: 3
[1]; Example 2b, 40 patients
  patients with TEAEs leading to dose reduction of melflufen from 40 mg to 25 mg: 32.5%
[1]; MM patients, clinical trials
  effect on renal function: does not appear to have any effect on renal function
[1]; in the clinical trials
  reports of syncope, seizures, ventricular arrhythmias, ventricular tachycardia, ventricular fibrillation, flutter, torsade de pointes, or sudden deaths: no reports
[1]; [10]
  dose reductions in connection to both thrombocytopenia and neutropenia: 9%
  dose reductions in connection to both thrombocytopenia and neutropenia, n patients: 1
  dose reductions in connection to neutropenia: 27%
  dose reductions in connection to neutropenia, n patients: 3
  dose reductions in connection to thrombocytopenia: 64%
  dose reductions in connection to thrombocytopenia, n patients: 7
[1]; [11]
  treatment discontinuations due to treatment-related bone marrow suppression: 35%
  treatment discontinuations due to treatment-related bone marrow suppression, n patients: 14
[1]; of the 57 patients in the ongoing melflufen study
  fatal events while on treatment or within 30 days of last dose, n patients: 6
[2]
  time after end of infusion within which melflufen is no longer measurable: ≤ 15 min
[2]; 25 mg
  tmax: 15 min
[2]; 40 mg
  tmax: 25 min
[3]; 15 mg
  AUC(0-t): 0.0135 µg·h/mL
  AUC(0-inf): 0.0163 µg·h/mL
  Cmax: 0.039 µg/mL
  tmax: 15 min
[3]; 15 mg, T1/2
  half-life: 13 min
[3]; 25 mg
  AUC(0-t): 0.0408 µg·h/mL
  AUC(0-inf): 0.0408 µg·h/mL
  Cmax: 0.102 µg/mL
  tmax: 12 min
[3]; 25 mg, T1/2
  half-life: 4.6 min
[3]; 40 mg
  AUC(0-t): 0.0893 µg·h/mL
  AUC(0-inf): 0.0893 µg·h/mL
  Cmax: 0.222 µg/mL
  tmax: 15 min
[3]; 40 mg, T1/2
  half-life: 1.1 min
[3]; 55 mg
  AUC(0-t): 0.102 µg·h/mL
  AUC(0-inf): 0.102 µg·h/mL
  Cmax: 0.245 µg/mL
  tmax: 25 min
[3]; 55 mg, T1/2
  half-life: 2.7 min
[3]; half-life of melflufen concentrations after end of infusion
  half-life: 3 to 5 min
[4]
  antitumor activity over equimolar dosage of melphalan: superior antitumor activity
